Experimental data: ChEMBL document CHEMBL4020729, “Synthesis and evaluation of anti-plasmodial and cytotoxic activities of epoxyazadiradione derivatives” (Eur J Med Chem, 2017)
pIC50: −log10 of the molar value. Active and inactive are the calls of the source. The rule behind the calls is not given here.

Columns and labels:
SiHa = experiment: Antiproliferative activity against human SiHa cells after 48 hrs by SRB assay; format: functional, cell-based
PANC-1 = experiment: Antiproliferative activity against human PANC1 cells after 48 hrs by SRB assay; format: functional, cell-based; details: PANC-1, 48 h
MDA-MB-231 = experiment: Antiproliferative activity against human MDA-MB-231 cells after 48 hrs by SRB assay; format: functional, cell-based; details: MDA-MB-231, 48 h
Plasmodium falciparum [1] = experiment: Anti-plasmodial activity against chloroquine-resistant Plasmodium falciparum Dd2 infected in human erythrocytes after 50 hrs by SYBR green dye based fluorescence assay; format: functional, cell-based; details: Dd2, 50 h
IMR-32 = experiment: Antiproliferative activity against human IMR32 cells after 48 hrs by SRB assay; format: functional, cell-based; details: IMR-32, 48 h
Plasmodium falciparum [2] = experiment: Anti-plasmodial activity against chloroquine-sensitive Plasmodium falciparum 3D7 infected in human erythrocytes after 50 hrs by SYBR green dye based fluorescence assay; format: functional, cell-based; details: 3D7, 50 h
Plasmodium berghei = experiment: Anti-plasmodial activity against Plasmodium berghei ANKA infected in BALB/c mouse at 50 mg/kg, ip assessed as reduction in parasitemia administered once per day for 4 days by Giemsa staining based light microscopic assay; format: functional, organism-based

Row | SMILES | pIC50 (SiHa) | pIC50 (PANC-1) | pIC50 (MDA-MB-231) | pIC50 (Plasmodium falciparum [1]) | pIC50 (IMR-32) | pIC50 (Plasmodium falciparum [2]) | Activity (Plasmodium berghei)
1 | C#CCO/N=C1/[C@H]2O[C@]23[C@@]2(C)[C@H](CC[C@@]3(C)[C@@H]1c1ccoc1)[C@@]1(C)C=CC(=O)C(C)(C)[C@@H]1C[C@H]2OC(C)=O | < 4.00 | < 4.00 | < 4.00 | 5.08 | < 4.00 | 5.15 | 
2 | COc1cc(-n2cc(CO/N=C3/[C@H]4O[C@]45[C@@]4(C)[C@H](CC[C@@]5(C)[C@@H]3c3ccoc3)[C@@]3(C)C=CC(=O)C(C)(C)[C@@H]3C[C@H]4OC(C)=O)nn2)c(OC)cc1Cl | < 4.00 | 4.45 | < 4.00 | 5.92 | < 4.00 | 5.82 | inactive
3 | CC(=O)O[C@@H]1C[C@H]2C(C)(C)C(=O)C=C[C@]2(C)[C@H]2CC[C@@]3(C)[C@H](c4ccoc4)/C(=N\OCc4cn(-c5cc([N+](=O)[O-])ccc5Cl)nn4)[C@H]4O[C@]43[C@@]21C | < 4.00 | < 4.00 | < 4.00 | 5.42 | < 4.00 | 5.29 | 
4 | CCN1CCN(CC(=O)O[C@@H]2C[C@H]3C(C)(C)C(=O)C=C[C@]3(C)[C@H]3CC[C@@]4(C)[C@H](c5ccoc5)C(=O)[C@H]5O[C@]54[C@@]32C)CC1 | < 4.00 | < 4.00 | < 4.00 | 5.22 | < 4.00 | 5.07 | 
5 | CC1(C)C(=O)C=C[C@]2(C)[C@H]3CC[C@@]4(C)[C@H](c5ccoc5)C(=O)[C@H]5O[C@]54[C@]3(C)C(=O)C[C@@H]12 | < 4.00 | < 4.00 | 4.74 | 4.70 | < 4.00 | 4.89 | 
6 | CC(=O)O[C@@H]1C[C@H]2C(C)(C)C(=O)C=C[C@]2(C)[C@H]2CC[C@@]3(C)[C@H](c4ccoc4)/C(=N\OCc4cn(-c5ccc(Cl)c([N+](=O)[O-])c5)nn4)[C@H]4O[C@]43[C@@]21C | < 4.00 | < 4.00 | < 4.00 | 5.89 | < 4.00 | 5.55 | 
7 | CC(=O)O[C@@H]1C[C@H]2C(C)(C)C(=O)C=C[C@]2(C)[C@H]2CC[C@@]3(C)[C@H](c4ccoc4)/C(=N\OCc4cn(-c5ccc(C(C)=O)cc5)nn4)[C@H]4O[C@]43[C@@]21C | < 4.00 | < 4.00 | < 4.00 | 5.64 | < 4.00 | 5.51 | 
8 | CC1(C)C(=O)C=C[C@]2(C)[C@H]3CC[C@@]4(C)[C@H](c5ccoc5)C(=O)[C@H]5O[C@]54[C@]3(C)[C@H](OC(=O)c3ccc(F)c(Br)c3)C[C@@H]12 | < 4.00 | < 4.00 | < 4.00 | 5.26 | < 4.00 | 5.22 | 
9 | CC(=O)O[C@@H]1C[C@H]2C(C)(C)C(=O)C=C[C@]2(C)[C@H]2CC[C@@]3(C)[C@H](c4ccoc4)/C(=N\OCc4cn(CC(=O)Nc5ccc(F)c(Cl)c5)nn4)[C@H]4O[C@]43[C@@]21C | < 4.00 | < 4.00 | < 4.00 | 4.59 | < 4.00 | 4.49 | 
10 | CC(=O)O[C@@H]1C[C@H]2C(C)(C)C(=O)C=C[C@]2(C)[C@H]2CC[C@@]3(C)[C@H](c4ccoc4)/C(=N\OCc4cn(CC(=O)Nc5ccc(I)c(Cl)c5)nn4)[C@H]4O[C@]43[C@@]21C | < 4.00 | < 4.00 | < 4.00 | 4.06 | < 4.00 | 4.27 | 
11 | CC(=O)O[C@@H]1C[C@H]2C(C)(C)C(=O)C=C[C@]2(C)[C@H]2CC[C@@]3(C)[C@H](c4ccoc4)C(=O)[C@H]4O[C@]43[C@@]21C [EPOXYAZADIRADIONE] | < 4.00 | < 4.00 | < 4.00 | 5.54 | < 4.00 | 5.54 | 
